In patent US7161032B2, “Sulfonamide derivatives, insecticides for agricultural and horticultural use, and usage thereof” (Nihon Nohyaku Co., Ltd., priority 2002, dated 2007):

Experiments:
Assay type in all cases: in vivo
[1] = tested on: Diamond Back Moth (Plutella xylostella); experiment: Insecticidal effect on diamond back moth (Test Example 1): egg-bearing Chinese cabbage seedling immersed in 50 ppm liquid chemical
Summary of the method: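 Seedlings bearing 2-day-old eggs dipped about 30 s in 50 ppm formulated compound, air-dried, held at 25° C. Hatched larvae counted 6 days after immersion; mortality calculated and graded by criterion. Triplicate groups of 10 insects.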

[2] = tested on: Common Cutworm (Spodoptera litura); experiment: Insecticidal effect on common cutworm (Test Example 2): cabbage leaf piece immersed in 50 ppm liquid chemical; details: common cutworm (Spodoptera litura) second-instar larvae, 8 days after inoculation, 25° C.
Summary of the method: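 Cabbage leaf pieces (cv. Shikidori) dipped ~30 s in formulated compound at 50 ppm and air-dried. Second-instar larvae added, kept at 25° C. Dead and alive counted at 8 days to give % mortality, scored against a criterion scale; three groups of 10 insects.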

[3] = tested on: Smaller Tea Tortrix (Adoxophyes sp.); experiment: Insecticidal effect on smaller tea tortrix (Test Example 3): tea leaves immersed in 50 ppm liquid chemical; details: smaller tea tortrix (Adoxophyes sp.) larvae, 8 days after inoculation, 25° C., humidity 70%
Summary of the method: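 Tea leaves dipped about 30 seconds in 50 ppm compound preparation, air-dried, then infested with larvae and held at 25° C and 70% humidity. Dead and alive counted 8 days after inoculation; triplicate groups of 10 insects.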

SMILES | Insecticidal effect (mortality grade), Test Example 1 [1] | Insecticidal effect (mortality grade), Test Example 2 [2] | Insecticidal effect (mortality grade), Test Example 3 [3]
Cc1cc(C(F)(C(F)(F)F)C(F)(F)F)ccc1NC(=O)c1cccc(I)c1C(=O)NC(C)CS(=O)(=O)N1CCSCC1 (stereo not drawn) [1-55] | A (Mortality 100%) | A (Mortality 100%) | A (Mortality 100%)
CCCNS(=O)(=O)CC(C)NC(=O)c1c(I)cccc1C(=O)Nc1ccc(C(F)(C(F)(F)F)C(F)(F)F)cc1C (stereo not drawn) [1-7] | A (Mortality 100%) | A (Mortality 100%) | A (Mortality 100%)
CCCCNS(=O)(=O)CC(C)NC(=O)c1c(Br)cccc1C(=O)Nc1ccc(C(F)(C(F)(F)F)C(F)(F)F)cc1C (stereo not drawn) [1-217] | A (Mortality 100%) | A (Mortality 100%) | A (Mortality 100%)
Cc1cc(C(F)(C(F)(F)F)C(F)(F)F)ccc1NC(=O)c1cccc(Br)c1C(=O)NC(C)CS(=O)(=O)NC(C)C (stereo not drawn) [1-216] | A (Mortality 100%) | A (Mortality 100%) | A (Mortality 100%)
CCCNS(=O)(=O)CC(C)NC(=O)c1c(Br)cccc1C(=O)Nc1ccc(C(F)(C(F)(F)F)C(F)(F)F)cc1C (stereo not drawn) [1-215] | A (Mortality 100%) | A (Mortality 100%) | A (Mortality 100%)
CSCC(C)NS(=O)(=O)CC(C)NC(=O)c1c(I)cccc1C(=O)Nc1ccc(C(F)(C(F)(F)F)C(F)(F)F)cc1C (stereo not drawn) [1-91] | A (Mortality 100%) | A (Mortality 100%) | A (Mortality 100%)
Cc1cc(C(F)(C(F)(F)F)C(F)(F)F)ccc1NC(=O)c1cccc(I)c1C(=O)NC(C)CS(=O)(=O)NCc1cccc(C#N)c1 (stereo not drawn) [1-31] | A (Mortality 100%) | A (Mortality 100%) | A (Mortality 100%)
COc1ccc(NS(=O)(=O)CC(C)NC(=O)c2c(I)cccc2C(=O)Nc2ccc(C(F)(C(F)(F)F)C(F)(F)F)cc2C)cc1 (stereo not drawn) [1-111] | A (Mortality 100%) | E (Mortality less than 50%) | E (Mortality less than 50%)
Cc1cc(C(F)(C(F)(F)F)C(F)(F)F)ccc1NC(=O)c1cccc(I)c1C(=O)NC(C)(C)CS(=O)(=O)N(C)C [1-177] | A (Mortality 100%) | A (Mortality 100%) | A (Mortality 100%)
Cc1cc(C(F)(F)C(F)(F)F)ccc1NC(=O)c1cccc(I)c1C(=O)NC(C)(C)CS(=O)(=O)NCC[S+](C)[O-] (stereo not drawn) [1-305] | A (Mortality 100%) | A (Mortality 100%) | A (Mortality 100%)
CSCCNS(=O)(=O)CC(C)(C)NC(=O)c1c(I)cccc1C(=O)Nc1ccc(C(F)(C(F)(F)F)C(F)(F)F)cc1C [1-81] | A (Mortality 100%) | A (Mortality 100%) | A (Mortality 100%)
CCN(CC)S(=O)(=O)CC(C)(C)NC(=O)c1c(I)cccc1C(=O)Nc1ccc(C(F)(C(F)(F)F)C(F)(F)F)cc1C [1-179] | A (Mortality 100%) | A (Mortality 100%) | A (Mortality 100%)
COc1ccccc1CNS(=O)(=O)CC(C)NC(=O)c1c(I)cccc1C(=O)Nc1ccc(C(F)(C(F)(F)F)C(F)(F)F)cc1C (stereo not drawn) [1-27] | A (Mortality 100%) | A (Mortality 100%) | A (Mortality 100%)
Cc1cc(C(F)(C(F)(F)F)C(F)(F)F)ccc1NC(=O)c1cccc(I)c1C(=O)NC(C)CS(=O)(=O)NCc1ccccc1F (stereo not drawn) [1-23] | A (Mortality 100%) | A (Mortality 100%) | A (Mortality 100%)
Cc1cc(C(F)(C(F)(F)F)C(F)(F)F)ccc1NC(=O)c1cccc(I)c1C(=O)NC(C)(C)CS(=O)(=O)NCC[S+](C)[O-] (stereo not drawn) [1-82] | A (Mortality 100%) | A (Mortality 100%) | A (Mortality 100%)
CCNS(=O)(=O)CC(C)NC(=O)c1ccccc1C(=O)Nc1ccc(C(F)(C(F)(F)F)C(F)(F)F)cc1C (stereo not drawn) [1-207] | A (Mortality 100%) | A (Mortality 100%) | E (Mortality less than 50%)

SMILES | Insecticidal effect (mortality grade), Test Example 1 [1] | Insecticidal effect (mortality grade), Test Example 2 [2] | Insecticidal effect (mortality grade), Test Example 3 [3]
CCN(CC)S(=O)(=O)CC(C)NC(=O)c1c(I)cccc1C(=O)Nc1ccc(OC(F)(F)F)cc1Cl (stereo not drawn) [1-285] | A (Mortality 100%) | C (Mortality 89–80%) | E (Mortality less than 50%)
CCNS(=O)(=O)CC(C)(C)NC(=O)c1c(I)cccc1C(=O)Nc1ccc(C(F)(C(F)(F)F)C(F)(F)F)cc1C [1-178] | A (Mortality 100%) | A (Mortality 100%) | A (Mortality 100%)
Cc1cc(C(F)(F)C(F)(F)F)ccc1NC(=O)c1cccc(I)c1C(=O)NC(C)(C)CS(=O)(=O)NCCS(C)(=O)=O [1-306] | A (Mortality 100%) | A (Mortality 100%) | A (Mortality 100%)
CCS(=O)(=O)CCNS(=O)(=O)CC(C)(C)NC(=O)c1c(I)cccc1C(=O)Nc1ccc(C(F)(C(F)(F)F)C(F)(F)F)cc1C [1-86] | A (Mortality 100%) | A (Mortality 100%) | A (Mortality 100%)
CCN(CC)S(=O)(=O)CC(C)(C)NC(=O)c1c(I)cccc1C(=O)Nc1ccc(OC(F)(F)F)cc1C [1-277] | A (Mortality 100%) | A (Mortality 100%) | A (Mortality 100%)
Cc1cc(C(F)(C(F)(F)F)C(F)(F)F)ccc1NC(=O)c1cccc(I)c1C(=O)NC(C)CS(=O)(=O)NCc1ccccc1Cl (stereo not drawn) [1-24] | A (Mortality 100%) | A (Mortality 100%) | A (Mortality 100%)
CCN(CC)S(=O)(=O)CC(C)NC(=O)c1c(I)cccc1C(=O)Nc1ccc(C(F)(F)C(F)(F)F)cc1C (stereo not drawn) [1-301] | A (Mortality 100%) | A (Mortality 100%) | A (Mortality 100%)
Cc1cc(C(F)(C(F)(F)F)C(F)(F)F)ccc1NC(=O)c1cccc(I)c1C(=O)N[C@@H](C)CS(=O)(=O)NCc1ccccc1 [1-146] | A (Mortality 100%) | A (Mortality 100%) | A (Mortality 100%)
CCN(CC)S(=O)(=O)CC(C)NC(=O)c1c(I)cccc1C(=O)Nc1ccc(Cl)c(Cl)c1Cl (stereo not drawn) [1-267] | A (Mortality 100%) | C (Mortality 89–80%) | E (Mortality less than 50%)
C=CCNS(=O)(=O)CC(C)NC(=O)c1c(I)cccc1C(=O)Nc1ccc(C(F)(C(F)(F)F)C(F)(F)F)cc1C (stereo not drawn) [1-20] | A (Mortality 100%) | A (Mortality 100%) | A (Mortality 100%)
CCN(CC)S(=O)(=O)CC(C)(C)NC(=O)c1ccccc1C(=O)Nc1ccc(C(F)(C(F)(F)F)C(F)(F)F)cc1C [1-208] | A (Mortality 100%) | E (Mortality less than 50%) | A (Mortality 100%)
Cc1cc(C(F)(C(F)(F)F)C(F)(F)F)ccc1NC(=O)c1cccc(I)c1C(=O)NC(C)CS(=O)(=O)NC(C)C(N)=O (stereo not drawn) [1-103] | A (Mortality 100%) | A (Mortality 100%) | A (Mortality 100%)
Cc1cc(C(F)(C(F)(F)F)C(F)(F)F)ccc1NC(=O)c1cccc(I)c1C(=O)NC(C)CS(=O)(=O)Nc1cccc(F)c1 (stereo not drawn) [1-109] | A (Mortality 100%) | E (Mortality less than 50%) | A (Mortality 100%)
Cc1cc(C(F)(C(F)(F)F)C(F)(F)F)ccc1NC(=O)c1cccc(I)c1C(=O)NC(C)CS(=O)(=O)NCCc1ccccc1 (stereo not drawn) [1-47] | A (Mortality 100%) | A (Mortality 100%) | A (Mortality 100%)
Cc1cc(C(F)(C(F)(F)F)C(F)(F)F)ccc1NC(=O)c1cccc(I)c1C(=O)NC(C)CS(=O)(=O)NCC[S+](C)[O-] (stereo not drawn) [1-76] | A (Mortality 100%) | A (Mortality 100%) | A (Mortality 100%)
